According to patent US20240246954A1, “COMPOSITIONS AND METHODS FOR INHIBITING KRAS” (TheRas, Inc., priority 2021, published 2024):

Columns and labels:
[1] = target: T1, Avi-KRAS G12D/Q25A (1-169) GppNHp/3×FLAG-PI3KCA (157-299) (Homo sapiens, UniProt P01116, G12D/Q25A); experiment: HTRF PI3KCA-KRAS G12D/Q25A-GppNHp disruption assay; assay type: biochemical; settings: 1 h incubation
T1 construct: Avi-KRAS G12D/Q25A (1-169) GppNHp
Protocol: (§1) The HTRF assay employed the following protocol:
(§2) Compounds were dispensed in assay plate (384-well, Grenier Bione #784075) using Echo (model 555) with dose response settings: 200 nL final volume, titration from 100 μM as a 10-point dilution series. Protein mix was prepared in assay buffer, and dispensed on plates, 10 μL per well, then incubated for 1 h at room temperature, with 700 rpm shaking. Reagents mix was prepared and dispensed on plates, 10 μL per well, then incubated for 1 h at room temperature, with 700 rpm shaking.
(§3) Plates were analyzed on an Envision plate reader using the following setting: Excitation 320 nm, Bandwidth […]; Emission 615 nm, Bandwidth […], Gain 100%, Flashes 100, Lag 60 μs. Data was reported as percentage of activity, with DMSO as 100%. Data was plotted and analyzed using Prism 8.

[2] = target: T2, Avi-KRAS G12D (1-169) GppNHp/RAF1 RBD-3×FLAG (52-151) (Homo sapiens, UniProt P01116, G12D); experiment: HTRF Raf1-KRAS G12D-GppNHp disruption assay; assay type: biochemical; settings: 1 h incubation
T2 construct: Avi-KRAS G12D (1-169) GppNHp
Protocol: as §1, §2, §3

T2 sequence (P01116 1-169 isoform P01116-2 G12D limits assumed): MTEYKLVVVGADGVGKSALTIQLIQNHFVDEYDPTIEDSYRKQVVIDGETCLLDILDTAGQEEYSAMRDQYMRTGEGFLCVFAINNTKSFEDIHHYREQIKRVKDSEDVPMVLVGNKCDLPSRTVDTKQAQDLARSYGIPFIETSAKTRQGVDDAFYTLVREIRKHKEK
T1 sequence (P01116 1-169 isoform P01116-2 G12D/Q25A limits assumed): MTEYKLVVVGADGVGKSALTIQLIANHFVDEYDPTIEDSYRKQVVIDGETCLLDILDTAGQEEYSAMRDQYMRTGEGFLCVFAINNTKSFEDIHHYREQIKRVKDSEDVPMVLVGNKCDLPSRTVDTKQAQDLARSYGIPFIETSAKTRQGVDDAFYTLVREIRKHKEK

Row | IC50 [1] | IC50 [2] | Compound
1 | 1 to 10 µM | 1 to 10 µM | Nc1nc2c(-c3c(C(F)(F)F)cc4c(N5CCNCC5)nc(OCC56CCCN5CCC6)nc4c3F)ccc(F)c2o1 [Compound 189]
2 | 10 to 30 µM | 10 to 30 µM | CN(c1nc(OCC23CCCN2CCC3)nc2c(F)c(-c3ccc(F)c4sc(N)nc34)c(-c3ccoc3)cc12)C1CN(C(=O)CN)C1 [Compound 163]
3 | 1 to 10 µM | 1 to 10 µM | NC(=O)N1C2CCC1CN(c1nc(OC[C@@]34CCCN3C[C@H](F)C4)nc3c(F)c(-c4ccc(F)c5sc(N)nc45)c(C(F)(F)F)cc13)C2 [Compound 273]
4 | 10 to 30 µM | 10 to 30 µM | CN1CCC[C@H]1COc1nc(NCCN)c2cc(Cl)c(-c3cccc4oc(N)nc34)c(F)c2n1 [Compound 92]
5 | 10 to 30 µM | 1 to 10 µM | CN1CCC[C@H]1COc1nc(NC2CN(C(=O)CN)C2)c2cc(-c3ccoc3)c(-c3ccc(F)c4sc(N)nc34)c(F)c2n1 [Compound 146]
6 | 1 to 10 µM | 1 to 10 µM | CN1CCC[C@H]1COc1nc(N2CCNCC2)c2cc(C(F)(F)F)c(-c3ccc(F)c4sc(N)nc34)c(F)c2n1 [Compound 115]
7 | 10 to 30 µM | 1 to 10 µM | CN(c1nc(OCC23CCCN2CCC3)nc2c(F)c(-c3ccc(F)c4sc(N)nc34)c(C(F)(F)F)cc12)[C@H]1C[C@@H]2CC[C@H]1N2 (atropisomer, axis not shown) [Compound 270]
8 | 10 to 30 µM | 10 to 30 µM | CN(c1nc(OCC23CCCN2CC(C)(C)C3)nc2c(F)c(-c3ccc(F)c4sc(N)nc34)c(C(F)(F)F)cc12)C1CNC1 (centres unmarked) [Compound 201]
9 | 10 to 30 µM | 10 to 30 µM | CN1C[C@H](F)C[C@H]1COc1nc(N2CCNCC2)c2cc(Cl)c(-c3ccc(F)c4sc(N)nc34)c(F)c2n1 [Compound 128]
10 | 10 to 30 µM | 10 to 30 µM | CO[C@@H]1C[C@@H](COc2nc(N3CCNCC3)c3cc(Cl)c(-c4ccc(F)c5sc(N)nc45)c(F)c3n2)N(C)C1 [Compound 69]
11 | 10 to 30 µM | 10 to 30 µM | CN1CCC[C@H]1COc1nc(NCCN)c2cc(Cl)c(-c3ccc(F)c4nc(N)sc34)c(F)c2n1 [Compound 107]
12 | 1 to 10 µM | 1 to 10 µM | CN1CCC[C@H]1COc1nc(N2CC(N)C2)c2cc(Cl)c(-c3ccc(F)c4sc(N)nc34)c(F)c2n1 [Compound 112]
13 | 10 to 30 µM | 10 to 30 µM | CN1CCC[C@H]1COc1nc(N(CCC#N)C2CN(C(=O)CN)C2)c2cc(Cl)c(-c3ccc(F)c4sc(N)nc34)c(F)c2n1 [Compound 183]
14 | 10 to 30 µM | 1 to 10 µM | C[C@@H]1CN(c2nc(OC[C@]34CCCN3C[C@H](F)C4)nc3c(F)c(-c4ccc(F)c5sc(N)nc45)c(C(F)(F)F)cc23)CCN1 [Compound 210]
15 | 10 to 30 µM | 10 to 30 µM | C#Cc1cc2c(N3CCNCC3)ncnc2c(F)c1-c1ccc(F)c2sc(N)nc12 [Compound 66, 4-(6-ethynyl-8-fluoro-4-(piperazin-1-yl)quinazolin-7-yl)-7-fluorobenzo[d]thiazol-2-amine]
16 | 10 to 30 µM | 1 to 10 µM | CN1C[C@H](F)C[C@H]1COc1nc(NC2CN(C(=O)CN)C2)c2cc(-c3ccoc3)c(-c3ccc(F)c4sc(N)nc34)c(F)c2n1 [Compound 137]
17 | 10 to 30 µM | 10 to 30 µM | CN1CCC[C@H]1COc1nc(NCCN)c2cc(Cl)c(-c3ccc4nc(N)sc4c3)c(F)c2n1 [Compound 109]
18 | 1 to 10 µM | 1 to 10 µM | CC1(C)CN2CCCC2(COc2nc(N3CCNCC3)c3cc(C(F)(F)F)c(-c4ccc(F)c5sc(N)nc45)c(F)c3n2)C1 (centres unmarked) [Compound 198]
19 | 1 to 10 µM | 1 to 10 µM | CN1CCC[C@H]1COc1nc(NCCN)c2cc(C(F)(F)F)c(-c3ccc(F)c4sc(N)nc34)c(F)c2n1 [Compound 149]
20 | 1 to 10 µM | 0.1 to 1 µM | C[C@@H]1CN(c2nc(OC[C@@]34CCCN3C[C@H](F)C4)nc3c(F)c(-c4ccc(F)c5sc(N)nc45)c(C(F)(F)F)cc23)CCN1 [Compound 212]
21 | 1 to 10 µM | 1 to 10 µM | Nc1nc2c(-c3c(OC(F)(F)F)cc4c(N5CC6CCC(C5)N6)nc(OC[C@@]56CCCN5C[C@H](F)C6)nc4c3F)ccc(F)c2o1 [Compound 233]
22 | 10 to 30 µM | 10 to 30 µM | Nc1nc2c(-c3c(C(F)(F)F)cc4c(NC5CNC5)ncnc4c3F)ccc(F)c2s1 [Compound 88]
23 | 1 to 10 µM | 0.1 to 1 µM | Nc1nc2c(-c3c(-c4ccoc4)cc4c(N5CC6CCC(C5)N6)nc(OC[C@@]56CCCN5C[C@H](F)C6)nc4c3F)ccc(F)c2s1 [Compound 237]

Row | IC50 [1] | IC50 [2] | Compound
24 | 10 to 30 µM | 10 to 30 µM | CN1CCC[C@H]1COc1nc(NCCN)c2cnc(-c3ccc(F)c4sc(N)nc34)c(F)c2n1 [Compound 81]
25 | 10 to 30 µM | 10 to 30 µM | CCc1cc2c(N3CCNCC3)nc(OC[C@@H]3CCCN3C)nc2c(F)c1-c1ccc(F)c2sc(N)nc12 [Compound 177, 4-(6-ethyl-8-fluoro-2-(((S)-1-methylpyrrolidin-2-yl)methoxy)-4-(piperazin-1-yl)quinazolin-7-yl)-7-fluorobenzo[d]thiazol-2-amine]
26 | 10 to 30 µM | 10 to 30 µM | CC(C)N(c1nc(OC[C@@H]2CCCN2C)nc2c(F)c(-c3ccc(F)c4sc(N)nc34)c(Cl)cc12)C1CNC1 [Compound 180]
27 | 10 to 30 µM | 10 to 30 µM | CN1C[C@H](F)C[C@H]1COc1nc(N2CCNCC2)c2cc(-c3ccoc3)c(-c3ccc(F)c4sc(N)nc34)c(F)c2n1 [Compound 141]
28 | 10 to 30 µM | 10 to 30 µM | CN1CCC[C@H]1COc1nc(N2C[C@@H]3[C@H]2CCN3C(=O)CN)c2cc(Cl)c(-c3cccc4nc(N)sc34)c(F)c2n1 [Compound 104]
29 | 1 to 10 µM | 1 to 10 µM | CN1C[C@H](F)C[C@H]1COc1nc(NC2CNC2)c2cc(C(F)(F)F)c(-c3ccc(F)c4sc(N)nc34)c(F)c2n1 [Compound 119]
30 | 10 to 30 µM | 10 to 30 µM | Nc1nc2c(-c3c(C4CCC4)cc4c(N5CCNCC5)ncnc4c3F)ccc(F)c2s1 [Compound 154]
31 | 10 to 30 µM | 10 to 30 µM | CN1CCC[C@H]1COc1nc(N2CC3(CCCN3)C2)c2cc(Cl)c(-c3ccc(F)c4sc(N)nc34)c(F)c2n1 [Compound 85]
32 | 0.1 to 1 µM | 0.1 to 1 µM | CO[C@@H]1C[C@@H](COc2nc(N3CC4CCC(C3)N4)c3cc(C(F)(F)F)c(-c4ccc(F)c5sc(N)nc45)c(F)c3n2)N(C)C1 [Compound 284]
33 | 1 to 10 µM | 0.1 to 1 µM | Nc1nc2c(F)ccc(-c3c(-c4ccoc4)cc4c(NC5CNC5)nc(OCC56CCCN5CCC6)nc4c3F)c2s1 [Compound 113]
34 | 10 to 30 µM | 10 to 30 µM | CN(c1nc(OC[C@@H]2C[C@@H](F)CN2C)nc2c(F)c(-c3ccc(F)c4sc(N)nc34)c(C(F)(F)F)cc12)C1CN(C(=O)CN)C1 [Compound 156]
35 | 10 to 30 µM | 0.1 to 1 µM | Nc1nc2c(-c3c(-c4ccoc4)cc4c(N5CC6CCC(C5)N6)nc(OCC56CCCN5CCC6)nc4c3F)ccc(F)c2s1 [Compound 159]
36 | 10 to 30 µM | 10 to 30 µM | CN1CCC[C@H]1COc1nc(N(C2CC2)C2CNC2)c2cc(Cl)c(-c3ccc(F)c4sc(N)nc34)c(F)c2n1 [Compound 152]
37 | 10 to 30 µM | 10 to 30 µM | CN1CCC[C@H]1COc1nc(N2CCNCC2)c2cc(-c3cnn(C)c3)c(-c3ccc(F)c4sc(N)nc34)c(F)c2n1 [Compound 176]
38 | 1 to 10 µM | 1 to 10 µM | Nc1nc2c(-c3c(OC(F)(F)F)cc4c(N5CCNCC5)nc(OCC56CCCN5CCC6)nc4c3F)ccc(F)c2s1 [Compound 228, 7-fluoro-4-(8-fluoro-4-(piperazin-1-yl)-2-((tetrahydro-1H-pyrrolizin-7a(5H)-yl)methoxy)-6-(trifluoromethoxy)quinazolin-7-yl)benzo[d]thiazol-2-amine]
39 | 1 to 10 µM | 1 to 10 µM | Nc1nc2c(-c3c(OC(F)(F)F)cc4c(N5CC6CC5CN6)nc(OC[C@@]56CCCN5C[C@H](F)C6)nc4c3F)ccc(F)c2s1 (some centres unmarked) [Compound 240]
40 | 10 to 30 µM | 10 to 30 µM | CN1CC(F)(F)C[C@H]1COc1nc(NCCN)c2cc(Cl)c(-c3ccc(F)c4sc(N)nc34)c(F)c2n1 [Compound 136]
41 | 1 to 10 µM | 1 to 10 µM | C[C@@H]1CN(c2nc(OC[C@@]34CCCN3C[C@H](F)C4)nc3c(F)c(-c4ccc(F)c5sc(N)nc45)c(C(F)F)cc23)[C@@H](C)CN1 [Compound 302]
42 | 10 to 30 µM | 1 to 10 µM | CN1CCC[C@H]1COc1nc(NC2CN(C(=O)CN)C2)c2cc(Cl)c(-c3ccc(F)c4sc(N)nc34)c(F)c2n1 [Compound 97]
43 | 1 to 10 µM | 0.1 to 1 µM | NCC(=O)N1CC[C@@H]2[C@H]1CN2c1nc(OCC23CCCN2CCC3)nc2c(F)c(-c3ccc(F)c4sc(N)nc34)c(C(F)(F)F)cc12 [Compound 202]
44 | 10 to 30 µM | 10 to 30 µM | Nc1nc2c(-c3c(Cl)cc4c(NC5CNC5)nc(O)nc4c3F)ccc(F)c2s1 [Compound 90]
45 | 1 to 10 µM | 1 to 10 µM | CN(c1nc(OCC23CCCN2CCC3)nc2c(F)c(-c3ccc(F)c4sc(N)nc34)c(C(F)(F)F)cc12)[C@@H]1CCNC1 (single isomer, unassigned) [Compound 238]
46 | 0.1 to 1 µM | 0.1 to 1 µM | CN(c1nc(OCC23CCCN2CCC3)nc2c(F)c(-c3ccc(F)c4sc(N)nc34)c(C(F)(F)F)cc12)[C@H]1C[C@@H](N)C1 (atropisomer, axis not shown) [Compound 250]
